Reference: US7052865B1, “Identification of genes having a role in the presentation of diabetic nephropathy” (University College Dublin, National University of Ireland, …, priority 1999, dated 2006)

Assays:
[1] = system: CTGF; assay: CTGF mRNA levels in mesangial cells by Northern Blot, Phosphor Imager quantification; type: cell-based, human
Excerpt: CTGF, is a 38 kD cysteine-rich secreted peptide known to modulate ECM production in some extrarenal cell types. In Example 1, SSH analysis identified a cDNA fragment of 250 bp which was identical to bases 814-1061 of the human CTGF cDNA. Induction of CTGF mRNA expression in primary human mesangial cells cultured in high glucose was investigated by Northern Blotting as shown in FIG. 1.
A 2.4 kb band was detected following hybridisation with the CTGF probe. All of the values were normalised to GAPDH levels and the results are representative of three independent experiments.
To assess the role of TGF-β1 as a stimulus for CTGF expression in response to high glucose, cells were incubated in either 5 mM glucose or 30 mM glucose plus 1 μl/ml anti-TGF-β1 antibody for seven days with three changes of medium. Cells were serum starved for 24 hr in RPMI 1640 and 0.5% FBS. 10 ng/ml TGF-β1 Calbiochem) or 10 ng/ml TGF-β1 preadsorbed with 1 μg/ml neutralising anti-TGF-β1 polyclonal antibody were subsequently added for 24 hr.
The role of PKC on CTGF expression in response to high glucose was investigated by culturing the mesangial cells in either 5 mM, 30 mM glucose or 30 mM glucose and the PKC inhibitor GF 102903X.
FIG. 7 is an autoradiograph of CTGF mRNA levels analysed by Northern Blot and depicts the results obtained when mesangial cells were exposed to TGF-β1 (10 ng/ml) for 24 hr in the presence (lane 3) and absence (lane 2) of anti-TGF-β1 neutralising antibody (1 μg/ml). Cells cultured in RPMI 1640 and 0.5% FBS for 24 hr served as control (lane 1). A 2.4 kb band was detected following hybridisation to the CTGF probe. The blot was stripped and reprobed with GAPDH. The relative amount of CTGF mRNA as estimated by Phosphor Imager quantification (FIG. 8). Values were normalised to GAPDH levels and the results are representative of two independent experiments.
(§1) FIG. 9 is an autoradiograph of CTGF mRNA levels analysed by Northern Blot and depicts the results obtained when mesangial cells were exposed to 5 mM glucose (lane 1), 30 mM glucose (lane 2) and 30 mM glucose in the presence of anti-TGF-β1 neutralising antibodies (1 μg/ml) (lane 3) for seven days. A 2.4 kb band was detected following hybridisation to the CTGF probe. The blot was stripped and probed with GAPDH. The relative amount of CTGF MRNA as estimated by Phosphor Imager quantification (FIG. 10). […]
as §1, with “11” for “9”, “PKC inhibitor GF102903X (10 μM)” for “the presence of anti-TGF-β1 neutralising antibodies (1 μg/ml)”, “four” for “seven”, “The blot was stripped and probed with GAPDH.” left out, “rnRNA” for “MRNA”, “12).” for “10).”

[2] = system: primary human mesangial cells; assay: Northern Blot of genes differentially induced in mesangial cells cultured in high glucose or mannitol (Table 1); type: cell-based; parameters: key to Differential Expression of IHG-1 mRNA: *: detected in mesangial cells cultured in 5 mM glucose+25 mM mannitol and 30 mM glucose, but not in 5 mM glucose; settings: 25 mM mannitol + 5 mM glucose, relative to 5 mM glucose
Description: Primary human mesangial cells were cultured as previously reported (Brady, H. R., et al. (1992) Kidney Int. 42, 480-487 and Denton, M. D., et al. (1991) Am. J. Physiol. 261, F1071-F1079). Cells (passage 7-11) were maintained in medium (Clonetics) containing either 5 mM or 30 mM D-glucose for 7 days. Culture medium was replenished three times during this period to maintain glucose levels in the desired range. To control for the effects of hyperosmolarity, mesangial cells were cultured in media containing 5 mM glucose supplemented with 25 mM mannitol. […] Northern Blots performed using formaldehyde denaturation according to standard protocols and quantitated using a Phosphor Imager (Biorad) confirmed differential expression of fifteen of the sixteen subcloned fragments as indicated in Table 1. ^c refers to the differential expression of each gene based on Northern Blot analysis of primary human mesangial cells cultured under indicated conditions relative to expression in cells cultured in 5 mM glucose. Values were obtained by Phosphor-Imaging and were normalised by comparison with glyceraldehyde-3-phosphate dehydrogenase (GAPDH) (*, detected in mesangial cells cultured in 5 mM glucose+25 mM mannitol and 30 mM glucose, but not in 5 mM glucose, fold expression is degree of expression relative to that found in 5 mM glucose). Within a diabetic milieu, high glucose levels may perturb cellular function through glucose-specific actions or by increasing the osmolarity of extracellular fluids. The role of hyperosmolarity as a mediator of gene induction by high glucose was assessed by comparing mRNA levels, as determined by Northern Blot, in cells cultured in either 30 mM glucose or in 5 mM glucose supplemented with 25 mM mannitol. […] High glucose and mannitol-induced hyperosmolarity afforded equivalent induction of the other products.

[3] = system: gremlin; assay: Gremlin mRNA levels in mesangial cells by Northern Blot; type: cell-based; settings: human recombinant TGF-β1 10 ng/ml, 24 h, serum restricted mesangial cells
Description: A) Primary cultures of human mesangial cells were propagated as described in Example 1, except that the medium was supplemented with 5% FBS. Treatment of cultures with glucose was carried out as described in Example 1. […]
Northern Blot analysis as described further below was performed on RNA extracted from mesangial cells grown in either 5 mM (‘normal’) or 30 mM (‘high’) glucose using the ORF of gremlin and IHG-2 probes. Both probes detected a 2-fold increase in gene expression under high glucose conditions as depicted in FIG. 16.
Northern Blots were performed using formaldehyde denaturation according to standard protocols and quantitated using a phosphorimager (Biorad). PCR products used to generate the probes for northern analysis were amplified using primers for the open reading frame (ORF) of gremlin (sense: […] (SEQ ID NO: 17); antisense […] (SEQ ID NO: 18)), and for IHG-2 (sense: […] (SEQ ID NO 19); antisense: […] (SEQ ID NO: 20)). Fibronectin and GAPDH probes were generated as described in Example 2
As indicated above, both high ambient glucose concentrations and cyclic mechanical strain provoke TGF-β1 production by mesangial cells in vitro and TGF-β1 appears to be a major stimulus for mesangial matrix accumulation in diabetic glomeruli in vivo. […]

[4] = system: mesangial cells; assay: Effect of rhCTGF on mesangial cell matrix production (RT-PCR); type: cell-based, human; settings: rhCTGF 8 ng/ml, 24 hr, serum starved mesangial cells
Description: To investigate the direct effects of CTGF up-regulation on matrix production, in particular the effect on collagens I and IV and fibronectin, mesangial cells were incubated with recombinant CTGF protein.
Mesangial cells were serum starved for 24 hr in RPMI 1640 medium supplemented with 0.5 % fetal bovine serum (FBS) and then exposed to rhCTGF (8 ng/ml) (a generous gift from Dr. Gary Grotendorst) for 24 hr (Kreisberg, J. I. and Ayo, S. H. (1993). Kidney Int. 43, 109-113). Total RNA was extracted and chromosomal DNA was removed using DNase 1 (Gibco-BRL). Equal amounts of cDNA were subsequently amplified by PCR using specific primers for GAPDH (Gen/EMBL accession no. AJ005371, sense: […] (SEQ ID NO: 7); antisense: […] (SEQ ID NO: 8), Collagen I (Gen/EMBL accession no. X55525, sense: […] (SEQ ID NO: 9); antisense: […] (SEQ ID NO: 10)), Collagen IV (Gen/EMBL accession no. M11315, sense: […] (SEQ ID NO: 11); antisense: […] (SEQ ID NO: 12) and fibronectin (Gen/EMBL accession no. X0276 1, sense: CGAAATCACAGCCAGTAG (SEQ ID NO. 13), antisense: ATCACATCCACACGGTAG (SEQ ID NO: 14)).
FIG. 3 depicts ethidium-stained panels of a 2% (w/v) agarose gel containing 10 μl of each PCR reaction after electrophoresis.

Question: What does the source list for `CN(C)CCCn1cc(C2=C(c3c[nH]c4ccccc34)C(=O)NC2=O)c2ccccc21` [GF102903X]?
Answer: effect on high glucose-induced CTGF expression ([1]; 30 mM glucose, four days, inhibitor 10 μM): partial inhibition; effect on TGF-β1-induced CTGF expression ([1]; TGF-β1 10 ng/ml, 24 hr, antibody 1 μg/ml, GF102903X data not shown): without effect

Question: Which results are given for `OC[C@@H](O)[C@@H](O)[C@H](O)[C@H](O)CO` [mannitol]?
Answer: mesangial cell CTGF expression compared with high glucose ([1]; 25 mM mannitol + 5 mM glucose versus 30 mM glucose, in vitro): less mesangial cell CTGF expression in vitro than high glucose; Differential Expression of IHG-1 mRNA [2]: *; Differential Expression of ARP3 mRNA ([2]; normalised to GAPDH): 1.0-fold; Differential Expression of CAP mRNA ([2]; normalised to GAPDH): 1.7-fold; Differential Expression of CTGF mRNA ([2]; normalised to GAPDH): 1.5-fold; Differential Expression of Caldesmon mRNA ([2]; normalised to GAPDH): 2.8-fold; Differential Expression of Fibronectin mRNA ([2]; normalised to GAPDH): 1.5-fold; Differential Expression of IHG-2 mRNA ([2]; normalised to GAPDH): 2.0-fold; Differential Expression of MRLC mRNA ([2]; normalised to GAPDH): 1.6-fold; Differential Expression of PAI-1 mRNA (2.0 kb) ([2]; normalised to GAPDH): 1.0-fold; Differential Expression of PAI-1 mRNA (3.0 kb) ([2]; normalised to GAPDH): 2.0-fold; Differential Expression of Profilin mRNA ([2]; normalised to GAPDH): 2.3-fold; Differential Expression of RBM3 mRNA ([2]; normalised to GAPDH): 1.4-fold; Differential Expression of T-plastin mRNA ([2]; normalised to GAPDH): 1.8-fold; Differential Expression of TCTP mRNA ([2]; normalised to GAPDH): 2.5-fold; Differential Expression of Thrombospondin mRNA ([2]; normalised to GAPDH): 8.0-fold; Differential Expression of Ubiquitin mRNA ([2]; normalised to GAPDH): 1.7-fold

Question: With “TGF-β1: human recombinant transforming growth factor β1 (Calbiochem)” as the molecule, how does the “induction of CTGF mRNA levels” value ([1]; TGF-β1 10 ng/ml, 24 hr, serum starved mesangial cells) read?
Answer: The value was “potent inducer”.

Question: What about the “gremlin mRNA levels” value [3] of the same molecule?
Answer: The value was “augmented”.

B1: rhCTGF: recombinant human connective tissue growth factor protein (protein, UniProt P29279 27-349, looked up)
CCN family member 2: QNCSGPCRCPDEPAPRCPAGVSLVLDGCGCCRVCAKQLGELCTERDPCDPHKGLFCHFGSPANRKIGVCTAKDGAPCIFGGTVYRSGESFQSSCKYQCTCLDGAVGCMPLCSMDVRLPSPDCPFPRRVKLPGKCCEEWVCDEPKDQTVVGPALAAYRLEDTFGPDPTMIRANCLVQTTEWSACSKTCGMGISTRVTNDNASCRLEKQSRLCMVRPCEADLEENIKKGKKCIRTPKISKPIKFELSGCTSMKTYRAKFCGVCTDGRCCTPHRTTTLPVEFKCPDGEVMKKNMMFIKTCACHYNCPGDNDIFESLYYRKMYGDMA
Question: With B1 as the molecule, how does the “mesangial cell collagens I and IV and fibronectin mRNA (RT-PCR)” value [4] read?
Answer: The value was “up-regulates”.
